The values below come from patent US10905660B2, “Microparticles” (NovaBiotics Limited, priority 2016, dated 2021).

Format in all cases: in vivo
Assay [1] relates to Pseudomonas aeruginosa ATCC 27853. In words: Mouse IN neutropenic lung burden model, Lynovex/lactose study. The settings on record: 24 h post-infection. On the procedure: (§1) Assessment of Efficacy of Lynovex (Cysteamine) Prep in a Mouse IN Neutropenic model of Pseudomonas aeruginosa ATCC 27853 (Lung Burden Model)
(§2) Animals were immunosuppressed/pre-conditioned with either 200 mg/kg or 150 mg/kg cyclophosphamide. Lynovex, chemical name cysteamine, and vehicle were either prepared either as Lynovex and lactose vehicle, or Lynovex and mannitol-based vehicle (both provided by Upperton (Upperton product)). These were prepared for treatment and vehicle-control alone respectively, and in combination. Tobramycin was prepared as an inhalation formulation in lactose. All treatments were administered using a Penn Century device. Phosphate buffered saline (PBS) and Pseudomonas selective agar were required for bacterial tissue burden.
(§3) Male CD1 mice (n=6 for treatment groups, plus five in pre-treatment group, totalling 35 mice) were used in this study. On day −4, the mice were immunosuppressed/pre-conditioned with 200 mg/kg cyclophosphamide intraperitoneally; and with 150 mg/kg cyclophosphamide intraperitoneally on day −1. An infection was established with P. aeruginosa ATCC27853, with an inoculum of 5×10^6 cfu/ml, administered intranasally in a volume of 40 μl following anaesthetisation with a ketamine/xylazine anaesthetic cocktail for 15 minutes, for the Lynovex prepared in lactose study, and an inoculum of 4×10^6 for the Upperton Lynovex product.
All treatments were administered intratracheally using a Penn Century device.
Lynovex (cysteamine) was administered at 1.5 mg alone, and in combination with lactose at the following concentrations: Lynovex 0.75 mg+2.25 mg lactose powder, Lynovex 1.5 mg+1.5 mg lactose powder, Lynovex 2.25 mg+0.75 mg, along with a vehicle only control of 3 mg lactose. In addition, Tobramycin at 188 μg/dose was administered, as an inhaled formulation which was mixed with lactose to aid measurement. The treatments were administered approximately 5 minutes after infection.
(§4) The lung tissue burden of each animal, at the clinical end point of 24 h post-infection, was determined. The lungs were homogenised in 2 ml PBS, serially diluted in PBS and plated onto Pseudomonas selective agar before quantification after 24-48 h at 37° C.

Assay [2] has the same test system. In words: Mouse IN neutropenic lung burden model, Lynovex Upperton product (mannitol-based) study. The settings on record: 0.188 mg inhalation formulation, intratracheal, 24 h post-infection; highly variable burdens. On the procedure: as §1, §2
Male CD1 mice (n=6 for treatment groups, plus five in pre-treatment group, totalling 35 mice) were used in this study. On day −4, the mice were immunosuppressed/pre-conditioned with 200 mg/kg cyclophosphamide intraperitoneally; and with 150 mg/kg cyclophosphamide intraperitoneally on day −1. […]
as §4

The nature of assay [3]: Mouse weights before and after infection. The settings on record: P. aeruginosa infected neutropenic CD1 mice, Upperton product study (FIG. 6). Here is the method:
as §3
In a different study, Lynovex was administered at the following doses: 3 mg 5% Lynovex and 3 mg 10% Lynovex. Lynovex in combination with Tobramycin as follows: 3 mg 5% Lynovex+Tobramycin 0.188 mg in 1.5 mg vehicle, 3 mg 10% Lynovex+Tobramycin 0.188 mg in 1.5 mg Vehicle (mannitol-based, provided by Upperton) and a Tobramycin only control (0.188 mg/dose in lactose vehicle). The treatments were administered once approximately 10 minutes after infection.
Additionally, mouse weights were recorded before and after infection. Mice treated with vehicle, Lynovex monotherapy or Tobramycin monotherapy lost weight following infection. […]

With `NC[C@H]1O[C@H](O[C@H]2[C@H](O)[C@@H](O[C@H]3O[C@H](CO)[C@@H](O)[C@H](N)[C@H]3O)[C@H](N)C[C@@H]2N)[C@H](N)C[C@@H]1O` [Tobramycin], in assay [1] (0.188 mg inhalation formulation, intratracheal), the “animals that cleared the infection to below the limit of detection” value is reported as 5/6. In addition, the “lung burden compared with vehicle-treated mice” value in assay [1] (0.188 mg inhalation formulation, intratracheal, CD1 mice, P=0.0097 Kruskal Wallis test) is “statistically significant reduction in lung burden”. The “average reduction in lung burden compared with vehicle-treated mice” value in assay [2] is 1.61 log10 cfu/g. Further, the “mouse weight following infection” value in assay [3] was “lost weight”.
With `NCCS` [Lynovex, cysteamine], the entries for the “mice clearing the infection to below the detection limit” value in assay [1] (1.5 mg intratracheal) and in assay [1] (2.25 mg intratracheal) were 5/6 and 4/6, respectively. For the same molecule, the “lung burden compared to vehicle” value is recorded as “reduced the lung burden” in assay [1] (1.5 mg intratracheal, P=0.0072) and “reduced the lung burden” in assay [1] (2.25 mg intratracheal, P=0.0349).
